Reference: PubChem BioAssay AID216 (DTP/NCI, 2004)
“And” between values parts separate entries of the source, which are not always exact repeats. Identical values can stand only once. Toxic doses and inconclusive results are not listed.

Tested on: BDF1 mice, P288 leukemia ip, survival T/C
Experiment: NCI In Vivo Anticancer Drug Screen. Data for tumor model P288 Lymphocytic Leukemia (intraperitoneal) in B6D2F1 (BDF1) mice
Conditions: higher = longer survival
Description: The antitumor activity of compounds was measured in mice bearing transplantable tumors. Survival or tumor size were measured and the results are expressed as the measurement made in the treated group (T) divided by the measurement made in the vehicle treated control group (C). The tumor model used in this assay is P288 Lymphocytic Leukemia (intraperitoneal) in B6D2F1 (BDF1) mice

[1] = endpoint: survival time, mean or median, dose: 80.0 mg/kg/injection, schedule: Q01DX010 (ip), vehicle: saline
[2] = endpoint: survival time, mean or median, dose: 6.25 mg/kg/injection, schedule: Q01DX010 (ip), vehicle: saline
[3] = endpoint: survival time, mean or median, dose: 12.5 mg/kg/injection, schedule: Q01DX010 (ip), vehicle: saline
[4] = endpoint: survival time, mean or median, dose: 125.0 micrograms/kg/injection, schedule: Q01DX010 (ip), vehicle: saline

SMILES: Clc1ccc(C(c2ccccc2Cl)C(Cl)Cl)cc1 (stereo not given)
- T/C (endpoint: survival time, mean or median, dose: 25.0 mg/kg/injection, schedule: Q01DX Z (sc), vehicle: steriod suspending solution): 100 % of control
- T/C (endpoint: survival time, mean or median, dose: 50.0 mg/kg/injection, schedule: Q01DX Z (sc), vehicle: steriod suspending solution): 122 % of control
- T/C (endpoint: survival time, mean or median, dose: 100.0 mg/kg/injection, schedule: Q01DX Z (sc), vehicle: steriod suspending solution): 107 % of control
- T/C (endpoint: survival time, mean or median, dose: 200.0 mg/kg/injection, schedule: Q01DX Z (sc), vehicle: steriod suspending solution): 86 % of control and 100 % of control
- T/C (endpoint: survival time, mean or median, dose: 400.0 mg/kg/injection, schedule: Q01DX Z (sc), vehicle: steriod suspending solution): 101 % of control

SMILES: NC(CCSCc1ccc(N(CCCl)CCCl)cc1)C(=O)O (stereo not given)
- T/C (endpoint: survival time, mean or median, dose: 4.5 mg/kg/injection, schedule: Q01DX010 (ip), vehicle: saline): 88 % of control
- T/C (endpoint: survival time, mean or median, dose: 9.0 mg/kg/injection, schedule: Q01DX010 (ip), vehicle: saline): 100 % of control
- T/C (endpoint: survival time, mean or median, dose: 18.0 mg/kg/injection, schedule: Q01DX010 (ip), vehicle: saline): 88 % of control
- T/C (endpoint: survival time, mean or median, dose: 36.0 mg/kg/injection, schedule: Q01DX010 (ip), vehicle: saline): 100 % of control
- T/C (endpoint: survival time, mean or median, dose: 54.0 mg/kg/injection, schedule: Q01DX010 (ip), vehicle: saline): 161 % of control
- T/C [1]: 172 % of control

SMILES: [I][Hg][CH2]C1COC([CH2][Hg][I])CO1 (stereo not given)
- T/C (endpoint: survival time, mean or median, dose: 0.95 mg/kg/injection, schedule: Q01DX Z (ip), vehicle: carboxymethylcellulose (CMC)): 97 % of control
- T/C (endpoint: survival time, mean or median, dose: 1.9 mg/kg/injection, schedule: Q01DX Z (ip), vehicle: carboxymethylcellulose (CMC)): 94 % of control
- T/C (endpoint: survival time, mean or median, dose: 3.75 mg/kg/injection, schedule: Q01DX Z (ip), vehicle: carboxymethylcellulose (CMC)): 90 % of control
- T/C [2]: 100 % of control
- T/C [3]: 100 % of control
- T/C (endpoint: survival time, mean or median, dose: 15.0 mg/kg/injection, schedule: Q01DX Z (ip), vehicle: carboxymethylcellulose (CMC)): 94 % of control
- T/C (endpoint: survival time, mean or median, dose: 25.0 mg/kg/injection, schedule: Q01DX010 (ip), vehicle: saline): 100 % of control
- T/C (endpoint: survival time, mean or median, dose: 50.0 mg/kg/injection, schedule: Q01DX010 (ip), vehicle: saline): 88 % of control

SMILES: O[C@H](CN1CC1)[C@@H](O)CN1CC1
- T/C (endpoint: survival time, mean or median, dose: 8.0 micrograms/kg/injection, schedule: Q01DX Z (ip), vehicle: carboxymethylcellulose (CMC)): 113 % of control
- T/C (endpoint: survival time, mean or median, dose: 16.0 micrograms/kg/injection, schedule: Q01DX Z (ip), vehicle: carboxymethylcellulose (CMC)): 112 % of control
- T/C (endpoint: survival time, mean or median, dose: 31.0 micrograms/kg/injection, schedule: Q01DX Z (ip), vehicle: carboxymethylcellulose (CMC)): 118 % of control
- T/C (endpoint: survival time, mean or median, dose: 31.3 micrograms/kg/injection, schedule: Q01DX010 (ip), vehicle: saline): 100 % of control
- T/C (endpoint: survival time, mean or median, dose: 62.5 micrograms/kg/injection, schedule: Q01DX010 (ip), vehicle: saline): 106 % of control
- T/C [4]: 112 % of control
- T/C (endpoint: survival time, mean or median, dose: 250.0 micrograms/kg/injection, schedule: Q01DX010 (ip), vehicle: saline): 150 % of control
- T/C (endpoint: survival time, mean or median, dose: 250.0 micrograms/kg/injection, schedule: Q01DX Z (ip), vehicle: carboxymethylcellulose (CMC)): 170 % of control
- T/C (endpoint: survival time, mean or median, dose: 500.0 micrograms/kg/injection, schedule: Q01DX Z (ip), vehicle: carboxymethylcellulose (CMC)): 172 % of control and 200 % of control

SMILES: COc1ccc2c(c1OC)C(=O)O[C@@H]2[C@H]1c2c(cc3c(c2OC)OCO3)CCN1C
- T/C (endpoint: survival time, mean or median, dose: 3.9 mg/kg/injection, schedule: Q01DX010 (ip), vehicle: saline): 112 % of control
- T/C (endpoint: survival time, mean or median, dose: 7.8 mg/kg/injection, schedule: Q01DX010 (ip), vehicle: saline): 112 % of control
- T/C (endpoint: survival time, mean or median, dose: 31.3 mg/kg/injection, schedule: Q01DX010 (ip), vehicle: saline): 106 % of control

SMILES: N=[N+]=CC(=O)OCC(N)C(=O)O (stereo not given)
- T/C (endpoint: survival time, mean or median, dose: 3.13 mg/kg/injection, schedule: Q01DX010 (ip), vehicle: saline): 94 % of control
- T/C [2]: 105 % of control
- T/C [3]: 100 % of control

SMILES: CN1c2c(nc(N)[nH]c2=O)NCC1CCNc1ccc(C(=O)NC(CCC(=O)O)C(=O)O)cc1 (stereo not given)
- T/C (endpoint: median survival time, dose: 6.25 mg/kg/injection, schedule: Q01DX009 (ip), vehicle: other): 104 % of control
- T/C (endpoint: median survival time, dose: 12.5 mg/kg/injection, schedule: Q01DX009 (ip), vehicle: other): 104 % of control
- T/C (endpoint: median survival time, dose: 25.0 mg/kg/injection, schedule: Q01DX009 (ip), vehicle: other): 108 % of control
- T/C (endpoint: median survival time, dose: 50.0 mg/kg/injection, schedule: Q01DX009 (ip), vehicle: other): 116 % of control
- T/C (endpoint: median survival time, dose: 400.0 mg/kg/injection, schedule: Q01DX009 (ip), vehicle: other): 162 % of control
- T/C (endpoint: median survival time, dose: 800.0 mg/kg/injection, schedule: Q01DX009 (ip), vehicle: other): 100 % of control

SMILES: COC12C(COC(N)=O)C3=C(C(=O)C(C)=C(N)C3=O)N1CC1C2N1C (stereo not given)
- T/C (endpoint: survival time, mean or median, dose: 0.31 mg/kg/injection, schedule: Q01DX Z (ip), vehicle: carboxymethylcellulose (CMC)): 110 % of control
- T/C (endpoint: survival time, mean or median, dose: 0.63 mg/kg/injection, schedule: Q01DX Z (ip), vehicle: carboxymethylcellulose (CMC)): 120 % of control
- T/C (endpoint: survival time, mean or median, dose: 1.25 mg/kg/injection, schedule: Q01DX Z (ip), vehicle: carboxymethylcellulose (CMC)): 114 % of control
- T/C (endpoint: survival time, mean or median, dose: 5.0 mg/kg/injection, schedule: Q01DX Z (ip), vehicle: carboxymethylcellulose (CMC)): 156 % of control
- T/C (endpoint: survival time, mean or median, dose: 10.0 mg/kg/injection, schedule: Q01DX Z (ip), vehicle: carboxymethylcellulose (CMC)): 167 % of control
- T/C (endpoint: survival time, mean or median, dose: 20.0 mg/kg/injection, schedule: Q01DX Z (ip), vehicle: carboxymethylcellulose (CMC)): 93 % of control

SMILES: Nc1ncnc2c1ncn2C1OC(COCc2ccccc2)C(OCc2ccccc2)C1OCc1ccccc1 (stereo not given)
- T/C (endpoint: survival time, mean or median, dose: 10.0 mg/kg/injection, schedule: Q01DX010 (ip), vehicle: saline): 94 % of control and 100 % of control
- T/C (endpoint: survival time, mean or median, dose: 20.0 mg/kg/injection, schedule: Q01DX010 (ip), vehicle: saline): 111 % of control and 94 % of control
- T/C (endpoint: survival time, mean or median, dose: 40.0 mg/kg/injection, schedule: Q01DX010 (ip), vehicle: saline): 105 % of control and 100 % of control
- T/C [1]: 94 % of control

SMILES: Nc1nc(F)nc2c1ncn2C1OC(CO)C(O)C1O (stereo not given)
- T/C (endpoint: survival time, mean or median, dose: 0.5 mg/kg/injection, schedule: Q01DX010 (ip), vehicle: saline): 111 % of control
- T/C (endpoint: survival time, mean or median, dose: 1.0 mg/kg/injection, schedule: Q01DX010 (ip), vehicle: saline): 100 % of control
- T/C (endpoint: survival time, mean or median, dose: 2.0 mg/kg/injection, schedule: Q01DX010 (ip), vehicle: saline): 88 % of control
- T/C (endpoint: survival time, mean or median, dose: 4.0 mg/kg/injection, schedule: Q01DX010 (ip), vehicle: saline): 88 % of control
- T/C [4]: 88 % of control
- T/C (endpoint: survival time, mean or median, dose: 500.0 micrograms/kg/injection, schedule: Q01DX010 (ip), vehicle: saline): 111 % of control
- T/C (endpoint: survival time, mean or median, dose: 1000.0 micrograms/kg/injection, schedule: Q01DX010 (ip), vehicle: saline): 116 % of control

SMILES: C[C@]12CCC(=O)C=C1CC[C@H]1[C@@H]3CC[C@](O)(C(=O)CO)[C@@]3(C)C[C@H](O)[C@@]12F
- T/C (endpoint: survival time, mean or median, dose: 0.45 mg/kg/injection, schedule: Q01DX Z (sc), vehicle: steriod suspending solution): 97 % of control
- T/C (endpoint: survival time, mean or median, dose: 0.9 mg/kg/injection, schedule: Q01DX Z (sc), vehicle: steriod suspending solution): 98 % of control
- T/C (endpoint: survival time, mean or median, dose: 1.8 mg/kg/injection, schedule: Q01DX Z (sc), vehicle: steriod suspending solution): 110 % of control and 97 % of control
- T/C (endpoint: survival time, mean or median, dose: 3.75 mg/kg/injection, schedule: Q01DX Z (sc), vehicle: steriod suspending solution): 106 % of control
- T/C (endpoint: survival time, mean or median, dose: 7.5 mg/kg/injection, schedule: Q01DX Z (sc), vehicle: steriod suspending solution): 108 % of control
- T/C (endpoint: survival time, mean or median, dose: 15.0 mg/kg/injection, schedule: Q01DX Z (sc), vehicle: steriod suspending solution): 106 % of control
- T/C (endpoint: survival time, mean or median, dose: 30.0 mg/kg/injection, schedule: Q01DX Z (sc), vehicle: steriod suspending solution): 108 % of control
- T/C (endpoint: survival time, mean or median, dose: 60.0 mg/kg/injection, schedule: Q01DX Z (sc), vehicle: steriod suspending solution): 102 % of control
- T/C (endpoint: survival time, mean or median, dose: 120.0 mg/kg/injection, schedule: Q01DX Z (sc), vehicle: steriod suspending solution): 105 % of control

SMILES: Nc1nc(=S)c2[nH]cnc2[nH]1
- T/C (endpoint: survival time, mean or median, dose: 0.12 mg/kg/injection, schedule: Q01DX Z (ip), vehicle: carboxymethylcellulose (CMC)): 101 % of control
- T/C (endpoint: survival time, mean or median, dose: 0.25 mg/kg/injection, schedule: Q01DX Z (ip), vehicle: carboxymethylcellulose (CMC)): 105 % of control and 109 % of control
- T/C (endpoint: survival time, mean or median, dose: 0.5 mg/kg/injection, schedule: Q01DX Z (ip), vehicle: carboxymethylcellulose (CMC)): 111 % of control and 122 % of control and 86 % of control
- T/C (endpoint: survival time, mean or median, dose: 1.0 mg/kg/injection, schedule: Q01DX Z (ip), vehicle: carboxymethylcellulose (CMC)): 107 % of control and 100 % of control
- T/C (endpoint: survival time, mean or median, dose: 2.0 mg/kg/injection, schedule: Q01DX Z (ip), vehicle: carboxymethylcellulose (CMC)): 103 % of control and 117 % of control and 98 % of control
- T/C (endpoint: survival time, mean or median, dose: 2.5 mg/kg/injection, schedule: Q01DX010 (ip), vehicle: other): 115 % of control
- T/C (endpoint: survival time, mean or median, dose: 4.0 mg/kg/injection, schedule: Q01DX Z (ip), vehicle: carboxymethylcellulose (CMC)): 94 % of control
- T/C (endpoint: survival time, mean or median, dose: 5.0 mg/kg/injection, schedule: Q01DX010 (ip), vehicle: other): 110 % of control and 94 % of control
- T/C (endpoint: survival time, mean or median, dose: 10.0 mg/kg/injection, schedule: Q01DX010 (ip), vehicle: other): 94 % of control
